From US20220323471A1 (priority 2019, published 2022)

How the values were obtained:
ZIKV strain MR766 = test: In situ (+)-ZIKV RNA hybridization in VERO cells; type: cell-based, Zika virus; details: MOI 0.5, 1 μM, 48 hours
Experimental: To determine the ZIKV life cycle stage at which DGP acts, two approaches were used to measure the production of viral RNA: 1) In situ hybridization to image viral RNA by using fluorescent probes, and 2) Reverse transcription PCR (qRT-PCR) to quantify viral RNA. […] At 48 hours post-infection, cells were fixed/permeabilized and ZIKV positive-strand RNA and detected by in situ hybridization using a specific fluorescently labeled negative-strand probe (green) and cell nuclei were stained using 4%6-diamidino-2-phenylindole (DAPI; blue). Twenty-five random images were captured for each treatment (Mock, ZIKV MR766, and ZIKV MR766+DGP 1 μM). To quantify the extent of infection, 400 cells per treatment were randomly counted and the percentage of infected (green) cells were calculated.
ZIKV RNA in cultured adherent cells was probed using the RNAscope reagents and protocol (Advanced Cell Diagnostics) (Wang, F. et al. 2012, “RNAscope: a novel in situ RNA analysis platform for formalin-fixed, paraffin-embedded tissues.” J Mol Diagn 14(1): 22-29) with some modifications as previously described (Puray-Chavez, M. 2017, “Multiplex single-cell visualization of nucleic acids and protein during HIV infection.” Nat Commun 8(1): 1882. Fixed cells on coverslips were washed twice with PBS, then incubated with 0.1% Tween-20 in PBS (PBS-T) for 10 min at room temperature (RT) and washed in PBS for 1 min. […]

[1] = tested on: endosomes and lysosomes of HT1080 cells; test: Acridine Orange fluorescence, endosomal/lysosomal acidification; type: cell-based, human; details: 4 hours pre-incubation, DGP, diphyllin, 6DG 2, 1 or 0.1 μM, Bafilomycin 100 nM, NH4Cl 25 mM
Experimental: To determine whether DGP inhibited ZIKV infection by preventing the acidification of endosomes and lysosomes, Acridine Orange (AO) was used, a cell-permeable fluorescent dye marker that accumulates in low pH compartments such as endosomes and lysosomes.
HT1080 cells were pre-incubated for 4 hours with the Bafilomycin (FIG. 10A, 100 nM), NH4Cl (FIG. 10A, 25 mM), DGP (FIG. 10B: 2 μM, 1 μM, or 0.1 μM) diphyllin (FIG. 10C: 2 μM, 1 μM, or 0.1 μM), or 6DG (FIG. 10C: 2 μM, 1 μM, or 0.1 μM) to test whether DGP prevents endosomal/lysosomal acidification. After staining the cells with 1 μg/mL of AO, changes in fluorescence were measured using a Celesta flow cytometer on the PerCP-Cy5-5-A channel. A shift in the AO fluorescence is indicated with an arrow in FIGS. 10A-10D.
Acridine Orange (Invitrogen) staining was performed as described previously (Kanzawa, T. et al. 2004, “Role of autophagy in temozolomide-induced cytotoxicity for malignant glioma cells.” Cell Death Differ 11(4): 448-457). Cells were stained with 1 μg/mL AO in 10% FBS DMEM for 30 min at 37° C. and then collected by trypsinization. Changes in fluorescence were measured using a Celesta flow cytometer in the PerCP-Cy5-5-A channel.

Question: What does the source list for `COc1cc2c(OC3OC(C)C(O)C(O)C3O)c3c(c(-c4ccc5c(c4)OCO5)c2cc1OC)C(=O)OC3` (stereo not drawn) [DGP, 6-deoxyglucose-diphyllin]?
Answer: % Infected Cells (ZIKV strain MR766): 3.05%; Infected Cells (Green) (ZIKV strain MR766; of 400 cells counted): 12; acidification of endosomes and lysosomes (AO fluorescence) [1]: decreased AO fluorescence
